The text below walks through data of patent US12653772B2, “Use of a rosebush extract as depigmenting active agent” (L'OREAL, priority 2020, dated 2026).

This test concerns reconstructed pigmented Episkin model. Put plainly: Depigmenting effect by topical application on the reconstructed pigmented Episkin model; melanin quantified by image analysis of Fontana-Masson stained sections. Format: cell-based. The following applies: DMSO control 569.02. The protocol:
The results of the evaluation are compared to those of the solvent (DMSO) control and of a reference whitening active agent (Lucinol).
The histological quality of the epidermis after treatment was evaluated on the HES-stained histological section in order to determine the effect of the treatment on the epidermis.
The melanocyte physiology was also evaluated in order to detect melanocyte cytotoxicity.
The melanin present in the PRE is stained on the histological slide (Fontana-Masson staining) and then quantified by image analysis.
Each epidermis slide is digitized using Nanozoomer®.
For each epidermis, about 10˜15 images are extracted (white light, magnification ×20).
The area occupied by melanin is quantified using the Histolab® software.
Two parameters, namely graphic comparison (box-plot) and p value significance (Mann-Whitney U test), were applied to the interpretation of the statistical results.
Up to 6 repetitions were calculated for each treatment group.
The statistical significance between the test groups and the corresponding solvent controls was determined using the non-parametric Mann-Whitney U test (n=6).
The statistical significance is defined if the p value is less than 0.05. […]
The area occupied by melanin is quantified using the Histolab® software and is represented by the mean pixel number per image. […]

`CCCCc1ccc(O)cc1O` [Lucinol]: the “Mean pixel number/image (area occupied by melanin)” value is, setting by setting: (300 μM) 394.69; (500 μM) 467.76.
